Test results reported in US20190083521A1, “COMBINATION THERAPY FOR TREATING CANCER” (Epizyme, Inc., priority 2014, published 2019).

What was measured:
MOLM-13 (MLL-AF9) cells [1] = assay: Example 7 primary screen: 300 nM EPZ-5676 pre-treatment, second compound 72 h, ATPLite, GI100 shift; type: cell-based, human; conditions: MOLM-13 (MLL-AF9); 300 nM EPZ-5676 pre-treatment vs DMSO
Method: (§1) Cells were split using EPZ-5676 or DMSO containing growth media and further incubated for an additional 3-day pre-treatment time. Cells were finally seeded in growth media containing EPZ-5676 or DMSO in 384-well plates at 500 cell/well density. Cells were then equilibrated in incubators for 24 hours before treatment with a second compound. Treated assay plates were incubated with a second compound for 72 hours. After this time, plates were developed for endpoint analysis using ATPLite to measure ATP content, which is used as an indicator of cell viability.
(§2) “N/D” means the GI100 of the second compound could not be determined for both conditions and “-” means not tested.
(§3) Growth Inhibition (GI) as a measure of cell viability: The cell viability of vehicle was measured at the time of dosing the second agent (T0) and after seventy-two hours (T72). A GI reading of 0% represents no growth inhibition—cells treated with test compound as compared to T72 vehicle signals were measured. […] A GI 200% represents complete death of all cells in the culture well. Compounds reaching an activity plateau of GI 200% are considered cytotoxic. GI is calculated by applying the following test and equation: […]

MOLM-13 (MLL-AF9) cells [2] = assay: Example 7 retest: EPZ-5676 pre-treatment, second compound 72 h, Cell Titer Glo, growth inhibition; type: cell-based, human; parameters: GI100: unit not given here; conditions: MOLM-13 (MLL-AF9); for Combination result with EPZ-5676, Retest: 150 nM EPZ-5676 pre-treatment vs DMSO
Method: (§4) Cells were then treated with a second compound for 72 hours. After this time, plates were developed for endpoint analysis using Cell Titer Glo to measure ATP content, which is used as an indicator of cell viability.
as §2
as §3, with “(T72).” for “(T72). A GI reading of 0% represents no growth inhibition—cells treated with test compound as compared to T72 vehicle signals were measured.”

MV4-11 (MLL-AF4) cells = assay: Combination proliferation assay with Compound A2 (CellTiter-Glo, Chou-Talalay CI); type: cell-based, human; conditions: MV4-11 (MLL-AF4); 7 Day Cotreatment Model
In short: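 Viability by CellTiter-Glo ATP luminescence; fraction affected versus DMSO controls; combination index by Chou-Talalay method (CI <1 synergy, >1 antagonism).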

[3] = tested on: SKM-1 (non-MLL-rearranged AML) cells; assay: as above; type: cell-based, human; conditions: SKM-1; Compound A2 concentrations greater than 1000 nM
Method: Graphs representing values of combination index (CI) versus Fractional effect (Fa) known as Fa-CI plots were generated and synergy was evaluated.
(§5) Viability was determined using CellTiter-Glo® (Promega).
MV4-11 cells were maintained in IMDM supplemented with 10% fetal bovine serum. MOLM-13 and SKM-1 cells were maintained in Roswell Park Memorial Institute medium (RPMI) supplemented with 10% fetal bovine serum. They were cultured in flasks or plates in a humidified 5% CO2 atmosphere.
(§6) Proliferation studies were performed using MOLM-13, MV4-11 and SKM-1 cell lines in vitro to evaluate the cancer cell killing effect of a combination of two agents together on cell growth. Initial proliferation studies were performed to determine the IC50 values of a given compound in each cell line. The cell counts were measured by ATP quantitation using the Promega Cell Titer Glo kit and luminescence values correspond to the amount of ATP in a given well.
(§7) Compounds evaluated for synergy in the co-treatment phase were tested in a range which was bracketed around the IC50's. The compounds were plated to a 96 well plate in a matrix format which includes increasing concentrations of each drug in the combination in a constant ratio, in addition to the effect of each compound alone in the study. Cells were seeded and grown in the log-linear phase for 3 or 7 days in the cotreatment phase. Maximum and minimum inhibition (DMSO alone) controls were used in each plate to calculate fraction affected (Fa) of a test well. DMSO concentration was kept at 0.1% v/v. The drug combination analysis was performed utilizing the Chou-Talalay method. Synergy was determined using the software package Calcusyn by Biosoft. The combination index (CI) is the term used to describe the level of synergy or antagonism in a given test system. A combination index less than one indicates synergy, and a CI greater than one indicates antagonism.
(§8) The drug combination analysis was performed using the Chou-Talalay method. Graphs representing values of combination index (CI) versus Fractional effect (Fa) known as Fa-CI plots were generated and synergy was evaluated.

MOLM-13 (MLL-AF9) cells [4] = assay: as above; type: cell-based, human; conditions: MOLM-13 (MLL-AF9); 7 Day Cotreatment Model
Method: The acute myelogenous leukemia cell lines MV4-11 (MLL-AF4) and MOLM-13 (MLL-AF9) were obtained from American Type Culture Collection (ATCC; Rockville, Md.) and Deutsche Sammlung von Mikroorganismen and Zellkulturen (DSMZ; Braunschweig, Germany) respectively.
as §6, with “Studies” for “Proliferation studies”, “MLL-rearranged” for “MOLM-13, MV4-11 and SKM-1”, “anti-proliferative” for “cancer cell killing”, “IC50” for “IC50 values”, “corresponded” for “correspond”
Compounds were evaluated for synergy in the co-treatment phase by testing the compounds in a concentration range which was bracketed around their IC50 values. The compounds were plated to a 96 well plate in a matrix format (FIG. 3) which includes increasing concentrations of each drug in the combination in a constant ratio, in addition to the effect of each compound alone in the study. Cells were seeded and grown in the log-linear phase for 3 or 7 days in the co-treatment phase. Minimum inhibition (DMSO alone) controls were used in each plate to calculate fraction affected (Fa) of a test well. DMSO concentration was kept at 0.1% v/v.
The drug combination analysis was performed utilizing the Chou-Talalay method Synergy was determined using the software package Calcusyn by Biosoft. The combination index (CI) is a quantitative term used to describe the level of synergy or antagonism in a given test system. A combination index less than one indicates synergy, and a CI greater than one indicates antagonism. Further, strong synergism is achieved when the CI value falls below 0.3.
The HP-D300 digital dispenser (Tecan) was used to dispense compounds in a combinatorial matrix. […] Cell viability was measured via ATP content using CellTiter-Glo® (Promega).
as §5
Cell viability was measured via ATP content using CellTiter-Glo® (Promega).
as §6
These studies were performed to evaluate both the combinatorial effect of compounds on cell killing and the durability of the effect by washing out one of the agents.
as §7, §8

RS4-11 (MLL-AF4) cells = assay: Example 7 retest: EPZ-5676 pre-treatment, second compound 72 h, Cell Titer Glo, growth inhibition; type: cell-based; parameters: GI100: unit not given here; conditions: RS4-11 (MLL-AF4), Ras mutation status: None known, second compound, 72 h
Method: as §4, §2
as §3, with “(T72).” for “(T72). A GI reading of 0% represents no growth inhibition—cells treated with test compound as compared to T72 vehicle signals were measured.”

ML-2 (MLL-AF6) cells = assay: as above; type: cell-based; parameters: GI100: unit not given here; conditions: ML-2 (MLL-AF6), KRAS A146T (het)
Method: as §4, §2
as §3, with “(T72).” for “(T72). A GI reading of 0% represents no growth inhibition—cells treated with test compound as compared to T72 vehicle signals were measured.”

THP-1 (MLL-AF9) cells = assay: as above; type: cell-based; parameters: GI100: unit not given here; conditions: NRAS G12D
Method: as §1, with “96-well plates.” for “384-well plates at 500 cell/well density.”, “treated” for “equilibrated in incubators for 24 hours before treatment with a second compound. Treated assay plates were incubated”, “Cell Titer Glo” for “ATPLite”
as §2, §3

[5] = tested on: OCI-AML-4 (MLL-ENL) cells; assay: as above; type: cell-based; conditions: OCI-AML-4 (MLL-ENL)
Method: as §4, §2
as §3, with “(T72).” for “(T72). A GI reading of 0% represents no growth inhibition—cells treated with test compound as compared to T72 vehicle signals were measured.”

SKM-1 (non-MLLr) cells = assay: as above; type: cell-based, human; parameters: GI100: unit not given here; conditions: SKM-1 (non-MLLr)
Method: as §4, §2
as §3, with “(T72).” for “(T72). A GI reading of 0% represents no growth inhibition—cells treated with test compound as compared to T72 vehicle signals were measured.”

[6] = 300 nM EPZ-5676 pre-treatment vs DMSO
[7] = NRAS Q61R (het), second compound, 72 h
[8] = KRAS K117N (homo), second compound, 72 h

SMILES: CNC(=O)c1cc(Oc2ccc(NC(=O)Nc3ccc(Cl)c(C(F)(F)F)c3)cc2)ccn1 [Sorafenib]
- Combination result with EPZ-5676, Primary screen (MOLM-13 (MLL-AF9) cells [1]): Synergy (considered synergistic if the GI100 (Growth inhibition 100) value of the second compound decreased by 2-fold or more when EPZ-5676 was added as compared to the DMSO control)
- Combination result with EPZ-5676, Retest (MOLM-13 (MLL-AF9) cells [2]): Synergy (considered synergistic if the GI100 (Growth inhibition 100) value of the second compound decreased by 2-fold or more when EPZ-5676 was added as compared to the DMSO control)

SMILES: C[C@]12C=CC(=O)C=C1CC[C@@H]1[C@@H]2[C@@H](O)C[C@@]2(C)[C@H]1CC[C@]2(O)C(=O)CO [Prednisolone]
- Combination effect with Compound A2 (Table 4) (MV4-11 (MLL-AF4) cells): antagonism
- Antiproliferative activity in presence of Compound A2 [3]: enhanced antiproliferative activity
- Combination effect with Compound A2 (Table 4) (MOLM-13 (MLL-AF9) cells [4]): antagonism

SMILES: Cn1cnc2c(F)c(Nc3ccc(Br)cc3F)c(C(=O)NOCCO)cc21 [Binimetinib (MEK-162), Binimetinib]
- GI50 (RS4-11 (MLL-AF4) cells; Homo sapiens): > 10000 nM
- GI100 (RS4-11 (MLL-AF4) cells): >10
- Result (combination with EPZ-5676) (ML-2 (MLL-AF6) cells): Synergy (considered synergistic if the GI100 (Growth inhibition 100) value of the second compound decreased by 2-fold or more when EPZ-5676 was added as compared to the DMSO control)
- GI50 (ML-2 (MLL-AF6) cells; second compound, 72 h): 30 nM
- GI100 (ML-2 (MLL-AF6) cells; second compound, 72 h): 0.50
- GI50 (THP-1 (MLL-AF9) cells): 90 nM
- GI100 (THP-1 (MLL-AF9) cells): >10
- Combination result with EPZ-5676, Retest [5, 6]: Synergy (considered synergistic if the GI100 (Growth inhibition 100) value of the second compound decreased by 2-fold or more when EPZ-5676 was added as compared to the DMSO control)
- Result (combination with EPZ-5676) ([5]; NRAS Q61R (het)): Synergy (considered synergistic if the GI100 (Growth inhibition 100) value of the second compound decreased by 2-fold or more when EPZ-5676 was added as compared to the DMSO control)
- GI50 [5, 7]: 59 nM
- GI100 [5, 7]: 1.504
- GI50 (MOLM-13 (MLL-AF9) cells [2]; Homo sapiens, Ras mutation status: None known, second compound, 72 h): 720 nM
- Combination result with EPZ-5676, Retest (MOLM-13 (MLL-AF9) cells [2]): Synergy (considered synergistic if the GI100 (Growth inhibition 100) value of the second compound decreased by 2-fold or more when EPZ-5676 was added as compared to the DMSO control)
- Result (combination with EPZ-5676) (MOLM-13 (MLL-AF9) cells [2]; Ras mutation status: None known): Synergy (considered synergistic if the GI100 (Growth inhibition 100) value of the second compound decreased by 2-fold or more when EPZ-5676 was added as compared to the DMSO control)
- GI100 (MOLM-13 (MLL-AF9) cells [2]; Ras mutation status: None known, second compound, 72 h): 3.96
- Combination result with EPZ-5676, Retest (SKM-1 (non-MLLr) cells; [6]): Synergy (considered synergistic if the GI100 (Growth inhibition 100) value of the second compound decreased by 2-fold or more when EPZ-5676 was added as compared to the DMSO control)
- Result (combination with EPZ-5676) (SKM-1 (non-MLLr) cells; KRAS K117N (homo)): Synergy (considered synergistic if the GI100 (Growth inhibition 100) value of the second compound decreased by 2-fold or more when EPZ-5676 was added as compared to the DMSO control)
- GI50 (SKM-1 (non-MLLr) cells; [8]): 10 nM
- GI100 (SKM-1 (non-MLLr) cells; [8]): 0.07

SMILES: Cn1c(Nc2ccc(C(F)(F)F)cc2)nc2cc(Oc3ccnc(-c4ncc(C(F)(F)F)[nH]4)c3)ccc21 [RAF265]
- Combination result with EPZ-5676, Primary screen (MOLM-13 (MLL-AF9) cells [1]): Synergy (considered synergistic if the GI100 (Growth inhibition 100) value of the second compound decreased by 2-fold or more when EPZ-5676 was added as compared to the DMSO control)
